Results: article PMC7400108, “Squalamine and Aminosterol Mimics Inhibit the Peptidoglycan Glycosyltransferase Activity of PBP1b” (Antibiotics, 2020)
“And” between values parts separate entries of the source, which are not always exact repeats. Equal entries are not always repeated. “Also recorded” adds a separate entry of the source. Where two headings read alike, the source gives them in different places.

Experiments:
E. coli PBP1b [1] = target: T1, E. coli PBP1b (Escherichia coli, UniProt P02919); assay: GTase inhibition assay: residual activity and IC50 of PBP1b (radioactive lipid II endpoint TLC assay, dansyl-lipid II continuous fluorescence assay); assay type: biochemical; details: up to 5 mM (1-5 mM), below CMC
T1 construct: PBP1bγ(M46-N844) was purified as previously described; made in house
T1 sequence (P02919 46-844): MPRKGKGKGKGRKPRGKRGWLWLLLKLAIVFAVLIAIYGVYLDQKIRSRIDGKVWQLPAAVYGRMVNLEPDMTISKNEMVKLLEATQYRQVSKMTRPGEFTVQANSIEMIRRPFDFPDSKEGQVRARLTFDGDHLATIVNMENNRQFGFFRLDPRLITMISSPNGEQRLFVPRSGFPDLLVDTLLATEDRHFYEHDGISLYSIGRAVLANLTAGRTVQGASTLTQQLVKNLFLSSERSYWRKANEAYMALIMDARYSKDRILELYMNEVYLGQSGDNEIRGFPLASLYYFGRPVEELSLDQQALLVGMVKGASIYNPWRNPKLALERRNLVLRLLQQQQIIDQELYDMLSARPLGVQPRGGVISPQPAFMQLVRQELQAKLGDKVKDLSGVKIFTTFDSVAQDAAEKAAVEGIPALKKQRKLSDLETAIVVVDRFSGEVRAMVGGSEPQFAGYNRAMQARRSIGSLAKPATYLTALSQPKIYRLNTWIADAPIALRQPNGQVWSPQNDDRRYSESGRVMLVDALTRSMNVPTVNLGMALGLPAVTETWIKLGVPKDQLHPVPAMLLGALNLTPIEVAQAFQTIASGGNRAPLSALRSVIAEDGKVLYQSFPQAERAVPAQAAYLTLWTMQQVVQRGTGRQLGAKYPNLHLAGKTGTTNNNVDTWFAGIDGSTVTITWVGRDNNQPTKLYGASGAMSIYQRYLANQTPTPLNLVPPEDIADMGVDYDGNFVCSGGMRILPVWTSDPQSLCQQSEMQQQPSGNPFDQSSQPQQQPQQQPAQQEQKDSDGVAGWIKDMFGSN

E. coli PBP1b [2] = target: T1, E. coli PBP1b; assay: as above; assay type: biochemical; details: for RA % (0.4 mM), residual GTase activity of PBP1b: compound 0.4 mM (400 µM); for RA % (0.4 mM), residual GTase activity of PBP1b / RA % (0.8 mM), residual GTase activity of PBP1b / remaining activity at 800 µM: compared to nontreated control; for RA % (0.8 mM), residual GTase activity of PBP1b: compound 0.8 mM (800 µM); for remaining activity at 800 µM: read-out: RA % (0.8 mM), residual GTase activity of PBP1b, compound 0.8 mM (800 µM)
Experimental: The continuous fluorescence GTase activity assay of PBP1b was performed using dansyl lipid II as substrate as described.
The end-point assay, based on radiolabeled lipid II ([^14C]lipid II), was performed in 30 µL in the same conditions as the fluorescence assay using 4 µM [^14C]lipid II (0.06 µCi/nmol) instead of the fluorescent substrate and by omitting the muramidase. The reaction was incubated 15 min at 30 °C, stopped by heating at 80 °C for 10min and the products were separated by thin-layer chromatography (TLC) on silica gel plates in 2-propanol–ammonium hydroxide (25%)–H2O (6:3:1; v/v/v).
The GTase inhibition assay was carried out by measuring the residual activity (RA) of E. coli PBP1b in the presence of 400 and 800 μM compounds. All the assays were repeated at least three times. The IC50 values were determined for the active compounds using variable concentrations of inhibitor (0−1000 μM) by fitting the data using GraphPad Prism 6.0 software.

PBP1b = target: T2, PBP1b (Escherichia coli, UniProt P02919); assay: Fluorescence anisotropy competition assay, displacement of NBD-lipid II probe from PBP1b; assay type: binding; details: NBD-lipid II 0.33 µM, PBP1b ~1 µM, serial dilutions of compound
T2 construct: PBP1bγ(M46-N844) was purified as previously described; made in house
T2 sequence (P02919 46-844): as above
Experimental: (§1) FA assay was performed as previously described. Briefly, fixed concentrations of NBD-lipid II (0.33 µM) and PBP1b (~1 µM) in the 25 mM Tris–HCl pH 7.5, NaCl 0.1 M, CHAPS 0.14% w/v, were mixed with serial dilutions of the compounds in 384-well plates. Measurement were performed using an Infinite F Plex (Tecan, Männedorf, Switzerland) microplate reader equipped with polarization filters with excitation and emission wavelengths at 485 and 535 nm respectively. All the experiments were performed in triplicates. For direct binding evaluation of the compounds with the probe, the experiments were performed in the same condition in the absence of the protein. FA values in millianisotropy units (mA) were plotted as a function of compound concentrations in µM as previously described.

[3] = Fluorescence anisotropy direct binding of compounds to the probe in the absence of the protein; details: NBD-lipid II 0.33 µM, no protein
Experimental: as §1

S. aureus = tested on: S. aureus; set-up: method as in PMID 31063379; details: cited from earlier work
E. coli = tested on: E. coli; set-up: method as in PMID 31063379; details: cited from earlier work
[4] = mean of three experiments ± s.d.
[5] = variable inhibitor concentrations 0-1000 µM, mean of three experiments ± s.d., read-out: IC50, GTase activity of PBP1b

Row | Compound | RA % (0.4 mM), residual GTase activity of PBP1b (E. coli PBP1b [2]; [4]) [%] | IC50 (E. coli PBP1b [2]; [5]) [µM] | remaining activity at 800 µM (E. coli PBP1b [2]; [4]) [%] | Inhibition of GTase activity of PBP1b (in words) (E. coli PBP1b [2]; concentration not given) | other results
1 | C[C@H](CCC(=O)NCCC[N+](C)(C)CCCS(=O)(=O)[O-])[C@H]1CCC2C3C(C[C@H](O)[C@@]21C)[C@@]1(C)CC[C@H](O)CC1C[C@H]3O (stereo partly drawn) [CHAPS] | – | – | – | – | Inhibition of PBP1b GTase activity (in words) (E. coli PBP1b [1]): no inhibition
2 | CC(C)CCCC(C)C1CCC2C3C(NCCCCN)C=C4CC(O)CCC4(C)C3CCC12C (stereo not drawn) [Compound 2] | 1.2 ± 0.3 | 114 ± 6 | – | – | RA % (0.8 mM), residual GTase activity of PBP1b (E. coli PBP1b [2]; [4]): 0.3 ± 0.1%
3 | CC(C)CCC[C@@H](C)[C@H]1CCC2C3C(CC[C@@]21C)[C@@]1(C)CC[C@H](O)CC1=C[C@@H]3NCCCNCCCCNCCCN (stereo partly drawn) [Compound 3] | 16 ± 2 | 220 ± 10 | 8.5 ± 3.1 | – | –
4 | CC(C)CCC[C@@H](C)[C@H]1CCC2C3C(CC[C@@]21C)[C@@]1(C)CC[C@H](O)CC1C[C@@H]3NCCCN (stereo partly drawn) [Compound 4] | 39 ± 2 | 303 ± 15 | 4 ± 1 | – | –
5 | CC(C)CCC[C@@H](C)[C@H]1CCC2C3C[C@@H](NCCCCN)C4C[C@@H](O)CC[C@]4(C)C3CC[C@@]21C (stereo partly drawn) [Compound 5, 6β-(1,4-diaminobutane)-cholestan-3β-ol] | 16 ± 1.4 | 221 ± 26 | 3 ± 1 | – | –
6 | CC(C)CCC[C@@H](C)[C@H]1CCC2C3C[C@@H](NCCCNCCCCNCCCN)C4C[C@@H](O)CC[C@]4(C)C3CC[C@@]21C (stereo partly drawn) [Compound 6, 6β-(spermine)-cholestan-3β-ol] | 3.9 ± 0.1 | – | 0.8 ± 0.4 | – | Competition with lipid II for binding to PBP1b (change of FA of the probe) (PBP1b): able to compete; also recorded: decrease of the FA; IC50 (E. coli PBP1b [2]): 111 ± 6 µM; Direct interaction between fluorescent lipid II and compound (FA) [3]: no significant interaction
7 | CC(C)CCCC(C)C1CCC2C3C(NCCCCN)C=C4CC(O)CCC4(C)C3CCC12C (stereo not drawn) [Compound 9] | – | – | – | almost inactive | RA % (0.8 mM), residual GTase activity of PBP1b (E. coli PBP1b [2]; [4]): 98% and 98 ± 1%
8 | CC(=O)[C@H]1CC[C@H]2[C@@H]3CCC4=CC(=O)CC[C@]4(C)[C@H]3CC[C@]12C [Compound 12, progesterone, reference compound] | – | – | 98 ± 1 | do not inhibit | –
9 | C[C@H](NCCCCN)[C@H]1CCC2C3CCC4=C[C@@H](NCCCCN)CC[C@]4(C)C3CC[C@@]21C (stereo partly drawn) [Compound 13] | – | – | 100 | absence of activity | Inhibition of GTase activity of PBP1b (in words) (E. coli PBP1b [2]; 0.8 mM compound, radioactive lipid II, endpoint TLC assay): inactive
10 | C[C@]12CCC3c4ccc(O)cc4CCC3C1CC[C@@H]2NCCCCN (stereo partly drawn) [Compound 15, (13S,17S)-17-((4-aminobutyl)amino)-13-methyl-7,8,9,11,12,13,14,15,16,17-decahydro-6H-cyclopenta[a]phenanthren-3-ol] | – | – | 105 ± 3 | absence of activity | Competition with lipid II for binding to PBP1b (change of FA of the probe) (PBP1b): no effect; also recorded: does not affect the FA; Direct interaction between fluorescent lipid II and compound (FA) [3]: no significant interaction
11 | CC(C)[C@@H](CC[C@@H](C)[C@H]1CC[C@H]2[C@@H]3[C@H](O)C[C@H]4C[C@@H](NCCCNCCCCN)CC[C@]4(C)[C@H]3CC[C@]12C)OS(=O)(=O)O [Squalamine (1), Squalamine] | 6 ± 2 | 291 ± 26 | 1.1 ± 0.6 | – | Competition with lipid II for binding to PBP1b (change of FA of the probe) (PBP1b): able to compete; also recorded: decrease of the FA; MIC (S. aureus): ~ 3 µg/mL; MIC (E. coli): ~ 3 µg/mL; Direct interaction between fluorescent lipid II and compound (FA) [3]: no significant interaction
12 | N1,N1’-((3S,7R,10R,13R,17R)-10,13-dimethyl-17-((R)-5-methylhexan-2-yl)-tetradecahydro-1H-cyclopenta[a]phenanthrene-3,7-diyl)bis(pentane-1,5-diamine) [Compound 7] | 12.5 ± 4.4 | 229 ± 17 | – | – | RA % (0.8 mM), residual GTase activity of PBP1b (E. coli PBP1b [2]; [4]): 1.5 ± 0.8%
